# Assays:
# Micrococcus luteus = assay: in vivo activity, M.I.C. on M. luteus (VM1 derivatives alone, without VS1); format: cell-based; design: key: (+) indicates multiplication of bacteria; details: M. luteus in LBroth, 18 h at 37° C. with shaking
# Description: The synthesized derivatives of the present invention have been tested for antibacterial activity (in solid and liquid medium), ribosome binding affinity and synergistic activity with virginiamycin S. The tests for biological activity were carried out both in vivo and in vitro. The in vivo tests were carried out using Micrococcus luteus as the test organism with the VM1 derivatives alone (without VS1). Minimum inhibitory concentrations (MIC values) were determined on agar broth plates by standard microbiological procedures, with a range of concentrations of the VM derivatives applied to the plates. The in vitro tests of the VM derivatives were performed together with VS1, and took advantage of the unique fluorescence (F) inherent in VS1. The results are summarized in the following tables, wherein the activities are compared to virginiamycin (VM1). | M. luteus in LBroth, 18 h at 37° C. with shaking. | M. luteus in LBroth, 18 h at 37° C. with shaking.
# ribosomes = assay: in vitro activity: binding to free ribosomes, VS1 fluorescence with erythromycin displacement; design: key to kobs (symbol): (*) too small to be measured. t/2 is very large; details: together with VS1, fluorescence
# Description: The in vivo tests were carried out using Micrococcus luteus as the test organism with the VM1 derivatives alone (without VS1). Minimum inhibitory concentrations (MIC values) were determined on agar broth plates by standard microbiological procedures, with a range of concentrations of the VM derivatives applied to the plates. The in vitro tests of the VM derivatives were performed together with VS1, and took advantage of the unique fluorescence (F) inherent in VS1. […] Using spectrofluorometry, an increase in fluorescence can be measured when ribosomes are added to a VS1 solution. Erythromycin is known to bind at the same position on the ribosome (50-S subunit) as VS1, and when it is added to the VS1 /ribosomal mixture, a decrease in fluorescence is seen. If VM1 is added to the VS1 /ribosomal/erythromycin mixture, an increase in fluorescence can be measured. Presumably, a conformational change of the ribosomes occurs upon binding of VM1, which allows VS1 to bind preferentially and releases erythromycin from the ribosomes. The VM1 derivatives would also display this type of behavior if they bind to the ribosomes.
# [1] = in vitro Activity of VM1-Ester Derivatives
# [2] = in vitro Activity of VM1-Carboxylic Acid Derivatives
SMILES,kobs (ribosomes; [1]) [s⁻¹],t/2 (ribosomes; [1]) [s],kobs (ribosomes; [2]),t/2 (ribosomes; [2]) [s],"in vivo Activity of VM1-Ester Derivatives, M.I.C. on M. luteus (multiplication of bacteria) (Micrococcus luteus; Concentration 0.0625 μg/mL)","in vivo Activity of VM1-Ester Derivatives, M.I.C. on M. luteus (multiplication of bacteria) (Micrococcus luteus; Concentration 0.125 μg/mL)","in vivo Activity of VM1-Ester Derivatives, M.I.C. on M. luteus (multiplication of bacteria) (Micrococcus luteus; Concentration 0.25 μg/mL)","in vivo Activity of VM1-Ester Derivatives, M.I.C. on M. luteus (multiplication of bacteria) (Micrococcus luteus; Concentration 0.5 μg/mL)","in vivo Activity of VM1-Ester Derivatives, M.I.C. on M. luteus (multiplication of bacteria) (Micrococcus luteus; Concentration 1 μg/mL)","in vivo Activity of VM1-Ester Derivatives, M.I.C. on M. luteus (multiplication of bacteria) (Micrococcus luteus; Concentration 2 μg/mL)","in vivo Activity of VM1-Ester Derivatives, M.I.C. on M. luteus (multiplication of bacteria) (Micrococcus luteus; Concentration 4 μg/mL)","in vivo Acitivity of VM1-Carboxylic Derivatives, M.I.C. on M. luteus (multiplication of bacteria) (Micrococcus luteus; Concentration 0.0625 μg/mL)","in vivo Acitivity of VM1-Carboxylic Derivatives, M.I.C. on M. luteus (multiplication of bacteria) (Micrococcus luteus; Concentration 0.125 μg/mL)","in vivo Acitivity of VM1-Carboxylic Derivatives, M.I.C. on M. luteus (multiplication of bacteria) (Micrococcus luteus; Concentration 0.25 μg/mL)",further results
"CC1=C\[C@@H](O)CC(=O)Cc2nc(co2)C(=O)N2CC[C@@H](SCCCCC(=O)OCC(Cl)(Cl)Cl)[C@@H]2C(=O)O[C@H](C(C)C)[C@H](C)/C=C/C(=O)NC\C=C\1 [Ester c R,S]",0.020,34.1,–,–,+,+,+,+,+,+,+,–,–,–,–
"CC1=C\[C@@H](O)CC(=O)Cc2nc(co2)C(=O)N2CC[C@@H](SCC(=O)O)[C@@H]2C(=O)O[C@H](C(C)C)[C@H](C)/C=C/C(=O)NC\C=C\1 [Carboxylic a R,S]",–,–,.00047 s⁻¹,1487,–,–,–,–,–,–,–,+,+,+,"in vivo Acitivity of VM1-Carboxylic Derivatives, M.I.C. on M. luteus (multiplication of bacteria) (Micrococcus luteus; Concentration 0.5 μg/mL): +; in vivo Acitivity of VM1-Carboxylic Derivatives, M.I.C. on M. luteus (multiplication of bacteria) (Micrococcus luteus; Concentration 1 μg/mL): +; in vivo Acitivity of VM1-Carboxylic Derivatives, M.I.C. on M. luteus (multiplication of bacteria) (Micrococcus luteus; Concentration 2 μg/mL): +; in vivo Acitivity of VM1-Carboxylic Derivatives, M.I.C. on M. luteus (multiplication of bacteria) (Micrococcus luteus; Concentration 4 μg/mL): +; in vivo Acitivity of VM1-Carboxylic Derivatives, M.I.C. on M. luteus (multiplication of bacteria) (Micrococcus luteus; Concentration 8 μg/mL): +; in vivo Acitivity of VM1-Carboxylic Derivatives, M.I.C. on M. luteus (multiplication of bacteria) (Micrococcus luteus; Concentration 16 μg/mL): +"
"CC1=C\[C@@H](O)CC(=O)Cc2nc(co2)C(=O)N2CC[C@H](SCCCCC(=O)OCC(Cl)(Cl)Cl)[C@H]2C(=O)O[C@H](C(C)C)[C@H](C)/C=C/C(=O)NC\C=C\1 [Ester c S,R]",–,–,–,–,+,+,+,+,+,+,+,–,–,–,"in vivo Activity of VM1-Ester Derivatives, M.I.C. on M. luteus (multiplication of bacteria) (Micrococcus luteus; Concentration 8 μg/mL): +; kobs (symbol) (ribosomes; [1]): *"
"CC1=C\[C@@H](O)CC(=O)Cc2nc(co2)C(=O)N2CC[C@@H](SCC(=O)OCC(Cl)(Cl)Cl)[C@@H]2C(=O)O[C@H](C(C)C)[C@H](C)/C=C/C(=O)NC\C=C\1 [Ester a R,S]",0.019,35.6,–,–,+,+,+,–,–,–,–,–,–,–,–
"CC1=C\[C@@H](O)CC(=O)Cc2nc(co2)C(=O)N2CC[C@@H](SCCC(=O)O)[C@@H]2C(=O)O[C@H](C(C)C)[C@H](C)/C=C/C(=O)NC\C=C\1 [Carboxylic b R,S]",–,–,0.003 s⁻¹,229,–,–,–,–,–,–,–,+,+,+,"in vivo Acitivity of VM1-Carboxylic Derivatives, M.I.C. on M. luteus (multiplication of bacteria) (Micrococcus luteus; Concentration 0.5 μg/mL): +; in vivo Acitivity of VM1-Carboxylic Derivatives, M.I.C. on M. luteus (multiplication of bacteria) (Micrococcus luteus; Concentration 1 μg/mL): +; in vivo Acitivity of VM1-Carboxylic Derivatives, M.I.C. on M. luteus (multiplication of bacteria) (Micrococcus luteus; Concentration 2 μg/mL): +; in vivo Acitivity of VM1-Carboxylic Derivatives, M.I.C. on M. luteus (multiplication of bacteria) (Micrococcus luteus; Concentration 4 μg/mL): +; in vivo Acitivity of VM1-Carboxylic Derivatives, M.I.C. on M. luteus (multiplication of bacteria) (Micrococcus luteus; Concentration 8 μg/mL): +; in vivo Acitivity of VM1-Carboxylic Derivatives, M.I.C. on M. luteus (multiplication of bacteria) (Micrococcus luteus; Concentration 16 μg/mL): +; in vivo Acitivity of VM1-Carboxylic Derivatives, M.I.C. on M. luteus (multiplication of bacteria) (Micrococcus luteus; Concentration 32 μg/mL): +"
"CC1=C\[C@@H](O)CC(=O)Cc2nc(co2)C(=O)N2CC[C@H](SCC(=O)OCC(Cl)(Cl)Cl)[C@H]2C(=O)O[C@H](C(C)C)[C@H](C)/C=C/C(=O)NC\C=C\1 [Ester a S,R]",–,–,–,–,+,+,+,+,+,+,+,–,–,–,"in vivo Activity of VM1-Ester Derivatives, M.I.C. on M. luteus (multiplication of bacteria) (Micrococcus luteus; Concentration 8 μg/mL): +; in vivo Activity of VM1-Ester Derivatives, M.I.C. on M. luteus (multiplication of bacteria) (Micrococcus luteus; Concentration 16 μg/mL): +; kobs (symbol) (ribosomes; [1]): *"
"CC1=C\[C@@H](O)CC(=O)Cc2nc(co2)C(=O)N2CC[C@H](SCCC(=O)O)[C@H]2C(=O)O[C@H](C(C)C)[C@H](C)/C=C/C(=O)NC\C=C\1 [Carboxylic b S,R]",–,–,–,–,–,–,–,–,–,–,–,+,+,+,"in vivo Acitivity of VM1-Carboxylic Derivatives, M.I.C. on M. luteus (multiplication of bacteria) (Micrococcus luteus; Concentration 0.5 μg/mL): +; in vivo Acitivity of VM1-Carboxylic Derivatives, M.I.C. on M. luteus (multiplication of bacteria) (Micrococcus luteus; Concentration 1 μg/mL): +; in vivo Acitivity of VM1-Carboxylic Derivatives, M.I.C. on M. luteus (multiplication of bacteria) (Micrococcus luteus; Concentration 2 μg/mL): +; in vivo Acitivity of VM1-Carboxylic Derivatives, M.I.C. on M. luteus (multiplication of bacteria) (Micrococcus luteus; Concentration 4 μg/mL): +; in vivo Acitivity of VM1-Carboxylic Derivatives, M.I.C. on M. luteus (multiplication of bacteria) (Micrococcus luteus; Concentration 8 μg/mL): +; in vivo Acitivity of VM1-Carboxylic Derivatives, M.I.C. on M. luteus (multiplication of bacteria) (Micrococcus luteus; Concentration 16 μg/mL): +; in vivo Acitivity of VM1-Carboxylic Derivatives, M.I.C. on M. luteus (multiplication of bacteria) (Micrococcus luteus; Concentration 32 μg/mL): +; in vivo Acitivity of VM1-Carboxylic Derivatives, M.I.C. on M. luteus (multiplication of bacteria) (Micrococcus luteus; Concentration 128 μg/mL): +; kobs (symbol) (ribosomes; [2]): *"
"CC1=C\[C@@H](O)CC(=O)Cc2nc(co2)C(=O)N2CC[C@@H](SCCC(=O)OCC(Cl)(Cl)Cl)[C@@H]2C(=O)O[C@H](C(C)C)[C@H](C)/C=C/C(=O)NC\C=C\1 [Ester b R,S]",0.021,32.7,–,–,+,+,+,+,–,–,–,–,–,–,–
"CC1=C\[C@@H](O)CC(=O)Cc2nc(co2)C(=O)N2CC[C@@H](SCCCCC(=O)O)[C@@H]2C(=O)O[C@H](C(C)C)[C@H](C)/C=C/C(=O)NC\C=C\1 [Carboxylic c R,S]",–,–,0.019 s⁻¹,38.7,–,–,–,–,–,–,–,+,+,+,–

# Second part, led by results:
kobs (ribosomes; [1]) [s⁻¹],t/2 (ribosomes; [1]) [s],kobs (ribosomes; [2]),t/2 (ribosomes; [2]) [s],SMILES,"in vivo Activity of VM1-Ester Derivatives, M.I.C. on M. luteus (multiplication of bacteria) (Micrococcus luteus; Concentration 0.0625 μg/mL)","in vivo Activity of VM1-Ester Derivatives, M.I.C. on M. luteus (multiplication of bacteria) (Micrococcus luteus; Concentration 0.125 μg/mL)","in vivo Activity of VM1-Ester Derivatives, M.I.C. on M. luteus (multiplication of bacteria) (Micrococcus luteus; Concentration 0.25 μg/mL)","in vivo Activity of VM1-Ester Derivatives, M.I.C. on M. luteus (multiplication of bacteria) (Micrococcus luteus; Concentration 0.5 μg/mL)","in vivo Activity of VM1-Ester Derivatives, M.I.C. on M. luteus (multiplication of bacteria) (Micrococcus luteus; Concentration 1 μg/mL)","in vivo Activity of VM1-Ester Derivatives, M.I.C. on M. luteus (multiplication of bacteria) (Micrococcus luteus; Concentration 2 μg/mL)","in vivo Activity of VM1-Ester Derivatives, M.I.C. on M. luteus (multiplication of bacteria) (Micrococcus luteus; Concentration 4 μg/mL)","in vivo Acitivity of VM1-Carboxylic Derivatives, M.I.C. on M. luteus (multiplication of bacteria) (Micrococcus luteus; Concentration 0.0625 μg/mL)","in vivo Acitivity of VM1-Carboxylic Derivatives, M.I.C. on M. luteus (multiplication of bacteria) (Micrococcus luteus; Concentration 0.125 μg/mL)","in vivo Acitivity of VM1-Carboxylic Derivatives, M.I.C. on M. luteus (multiplication of bacteria) (Micrococcus luteus; Concentration 0.25 μg/mL)",further results
0.0009,721,–,–,"CC1=C\[C@@H](O)CC(=O)Cc2nc(co2)C(=O)N2CC[C@H](SCCC(=O)OCC(Cl)(Cl)Cl)[C@H]2C(=O)O[C@H](C(C)C)[C@H](C)/C=C/C(=O)NC\C=C\1 [Ester b S,R]",+,+,+,+,+,+,+,–,–,–,"in vivo Activity of VM1-Ester Derivatives, M.I.C. on M. luteus (multiplication of bacteria) (Micrococcus luteus; Concentration 8 μg/mL): +"
0.068,10.2,0.068 s⁻¹,10.2,"CC1=C\[C@@H](O)CC(=O)Cc2nc(co2)C(=O)N2CCC=C2C(=O)O[C@H](C(C)C)[C@H](C)/C=C/C(=O)NC\C=C\1 [VM1, virginiamycin M1]",+,–,–,–,–,–,–,+,–,–,–
–,–,0.015 s⁻¹,46,"CC1=C\[C@@H](O)CC(=O)Cc2nc(co2)C(=O)N2CC[C@H](SCCCCC(=O)O)[C@H]2C(=O)O[C@H](C(C)C)[C@H](C)/C=C/C(=O)NC\C=C\1 [Carboxylic c S,R]",–,–,–,–,–,–,–,+,+,+,–

# Source: patent US5587475A, “Derivatized virginiamycin M1” (University of Notre Dame, priority 1995, dated 1996)
